Measurements published in patent US10604784B2, “Method and device for antibiotic susceptibility testing based on fluctuations of electrical resistance in a microchannel” (TRUSTEES OF BOSTON UNIVERSITY, priority 2016, dated 2020).

Columns and labels:
Format in all cases: cell-based
S. epidermidis = experiment: Mean resistance based susceptibility test in the microchannel (bacterial growth); settings: broth/Vancomycin mixture, vancomycin 4 μg/ml, t=0 to 4 hrs
Description: After the bacteria are trapped, for the Mean Resistance based Susceptibility Test 410, at 412, the baseline mean (average or time-averaged measured resistance through the channel) resistance can be measured for a predefined period of time. The baseline mean can be determined as a function (e.g., the average or time-average) of the measured resistance through the channel for two or more points in time. After the baseline mean resistance is determined, at 414, the antibiotic is added to the solution, either via one of the reservoirs 110 or directly to the microchannel 120 and, at 416, the solution containing the bacteria and the antibiotic is allowed to incubate for a predefined period of time (e.g., 1-3 hours, although shorter or longer periods can be used). After the expiration of a predefined period of time, at 418, the mean resistance is determined (e.g., as a function of the measured resistance through the channel for two or more points in time) and, at 420, the mean resistance is compared to the baseline mean resistance. […]
In the experiment shown in FIGS. 14, 15 and 16, the susceptibility of S. epidermidis to Vancomycin was tested using the mean resistance based approach shown in the flowchart in FIG. 4. As discussed above, S. epidermidis is non-motile and readily settles in the microchannel. […]

[1] = test system: susceptible E. coli strain; experiment: Electrical fluctuation based susceptibility test of immobilized bacteria in human urine/broth, susceptible strain; settings: about 50 bacteria, urine/broth/antibiotic mixture, antibiotic concentration above MIC, FIG. 13A/13C
Description: (§1) After the bacteria are trapped, for the Electrical Fluctuation based Susceptibility Test 430, at 432, the system measures the fluctuations of the electrical signals (e.g., voltage or current) to determine a baseline RMS signal level (e.g., the RMS level determined as function of the measured signal fluctuations). Next, at 434, the antibiotic is added to the solution, either via one of the reservoirs 110 or directly to the microchannel 120. Next, at 436, the (RMS) fluctuations of the electrical signal (e.g., voltage or current) are measured again and an RMS level can be determined as a function of the measured signal fluctuations, and, at 440, the RMS level of the fluctuations of the electrical signal can be compared to the baseline RMS signal level. If the RMS level of the fluctuations of the electrical signal is greater than the baseline signal RMS level, then the bacteria can be considered resistant to the antibiotic at 442. If the RMS level of the fluctuations of the electrical signal is not greater than the baseline RMS signal level, the bacteria can be considered susceptible to attack by the antibiotic at 444.
(§2) FIGS. 13A, 13B, and 13C show the results of antibiotic susceptibility studies in human urine. In this example, two strains of E. coli are used, with one being resistant to the administered antibiotic, nalidixic acid. […]

resistant E. coli strain = experiment: Electrical fluctuation based susceptibility test of immobilized bacteria in human urine/broth, resistant strain; settings: about 50 bacteria, urine/broth/antibiotic mixture, antibiotic concentration above MIC, FIG. 13B/13C
Description: as §1, §2

| SMILES | population size of bacteria in the antibiotic solution (S. epidermidis) | mean resistance value (change over time) (S. epidermidis; FIG. 16) | voltage fluctuations (RMS amplitude) over time after antibiotic is administered [1] | voltage fluctuations (RMS amplitude) over time after antibiotic is administered (resistant E. coli strain) |
| --- | --- | --- | --- | --- |
| CN[C@H](CC(C)C)C(=O)N[C@H]1C(=O)N[C@@H](CC(N)=O)C(=O)N[C@H]2C(=O)N[C@H]3C(=O)N[C@H](C(=O)N[C@H](C(=O)O)c4cc(O)cc(O)c4-c4cc3ccc4O)[C@H](O)c3ccc(c(Cl)c3)Oc3cc2cc(c3O[C@@H]2O[C@H](CO)[C@@H](O)[C@H](O)[C@H]2O[C@H]2C[C@](C)(N)[C@H](O)[C@H](C)O2)Oc2ccc(cc2Cl)[C@H]1O [Vancomycin] | the population size stays the same | does not change noticeably |  |  |
| CCn1cc(C(=O)O)c(=O)c2ccc(C)nc21 [nalidixic acid] |  |  | decay rather quickly | do not show significant changes over time |
